# In ChEMBL document CHEMBL1143076, “Polydiscamides B-D from a marine sponge Ircinia sp. as potent human sensory neuron-specific G protein coupled receptor agonists” (J Nat Prod, 2008):
# Experiment: Agonist activity at human sensory neuron-specific G-protein coupled receptor expressed in HEK293 cells assessed as intracellular calcium mobilization by FLIPR
# Format: functional, cell-based
row,SMILES,EC50 [nM]
1,CCC(C)(C)[C@H](NC(=O)[C@H](NC(=O)[C@@H]1CCCN1C(=O)[C@H](Cc1ccc(Br)cc1)NC(=O)[C@@H](C)NC=O)C(C)C)C(=O)N[C@H](Cc1c[nH]c2ccccc12)C(=O)N[C@@H](CCCNC(=N)N)C(=O)N[C@H](CS(=O)(=O)O)C(=O)N[C@@H]1C(=O)N(C)[C@@H](CCC(N)=O)C(=O)N[C@H](C(C)C)C(=O)N2CCC[C@H]2C(=O)N[C@H](CC(=O)O)C(=O)O[C@@H]1C [POLYDISCAMIDE C],3570
2,CC(C)[C@@H](NC(=O)[C@@H]1CCCN1C(=O)[C@H](Cc1ccc(Br)cc1)NC(=O)[C@@H](C)NC=O)C(=O)N[C@H](C(=O)N[C@H](Cc1c[nH]c2ccccc12)C(=O)N[C@@H](CCCNC(=N)N)C(=O)N[C@H](CS(=O)(=O)O)C(=O)N[C@@H]1C(=O)N(C)[C@@H](CCC(N)=O)C(=O)N[C@H](C(C)C)C(=O)N2CCC[C@H]2C(=O)N[C@H](CC(=O)O)C(=O)O[C@@H]1C)C(C)(C)C [POLYDISCAMIDE D],2800
3,CCC(C)(C)[C@H](NC(=O)[C@H](NC(=O)[C@@H]1CCCN1C(=O)[C@H](Cc1ccc(Br)cc1)NC(=O)[C@@H](C)NC=O)C(C)(C)C)C(=O)N[C@H](Cc1c[nH]c2ccccc12)C(=O)N[C@@H](CCCNC(=N)N)C(=O)N[C@H](CS(=O)(=O)O)C(=O)N[C@@H]1C(=O)N(C)[C@@H](CCC(N)=O)C(=O)N[C@H](C(C)C)C(=O)N2CCC[C@H]2C(=O)N[C@H](CC(=O)O)C(=O)O[C@@H]1C [POLYDISCAMIDE B],1260
